In publication PMC11928584, “H105A peptide eye drops promote photoreceptor survival in murine and human models of retinal degeneration” (Communications Medicine, 2025):
Where a SMILES comes first, the peptide text is derived from it.

Key:
[1] = system: photoreceptors of rd10/Serpinf1-/- mice; test: ONL thickness (histology, spider plot), rd10/Serpinf1-/- mice; assay type: in vivo, mouse; conditions: daily eye drops, P21
Description: Both eyes were oriented before enucleation to allow sectioning along the dorsal/ventral axis. Enucleated eyes from rd10 and rd10/Serpinf1^-/- mice were incised in the cornea and fixed in 2.5% glutaraldehyde for 20 min and then in 10% neutral buffered formalin at 4 °C for at least 48 h, followed by paraffin embedding, sectioning, and staining with either H&E or immunofluorescence procedures. […] For fluorescence microscopy, antibodies, and 0.1 µg/ml DAPI were used to immunostain and counterstain the nuclei, respectively. […] Fluorescence intensity was quantified using ImageJ, and a rectangle was selected around regions of interest (ROIs), channels were split for multiple antibodies, threshold was adjusted, noise was de-speckled, and fluorescence intensity was measured.
To generate spider plots, the ONL thickness was measured from images passing through the optic nerve (ON) acquired with light microscopy of the retina sections stained with H&E or images of retina sections stained with DAPI with a dorsal-ventral orientation. The ONL thickness in the entire retina sections was measured at 5 different positions from both sides of the ON using ImageJ[28]. […]

[2] = system: human iPSC-derived retinal organoids exposed to CSE; test: Ethidium homodimer staining of live retinal organoids (3D-ARQ); assay type: cell-based; conditions: D180 ROs, 24 h, mean ± SD, n=14
Description: Human iPSCs were differentiated into retinal organoids (ROs) following the protocol by Zhong et al.[41]. Briefly, on Day 0, hiPSC colonies were dissociated with dispase and grown in a suspension to form embryoid bodies, and slowly transitioned to neural induction media (DMEM/F12 (1:1), 1% N2 supplement (Invitrogen), 1 x minimum essential media-nonessential amino acids (NEAAs), 2 µg/ml heparin (Sigma)). On Day 7, EBs were seeded on Matrigel coated plates and maintained in neural induction media. On Day 16, the media was switched to the retinal differentiation medium (DMEM/F12 (3:1), 2% B27 (without vitamin A, Invitrogen), 1x NEAA and 1% antibiotic–antimycotic (Gibco)). Retinal domains were identified and lifted manually with tungsten needles between Day 21 and Day 26 under a phase contrast microscope. On day 30, the culture medium was transitioned to DMEM/F12 (3:1) with 2% B27, 1x NEAA, 1% antibiotic–antimycotic, 10% fetal bovine serum (FBS; Gibco), […] Taurine (Sigma), and 2 mM GlutaMAX (Invitrogen). Additionally, 1 µM retinoic acid supplement was introduced daily starting from day 63. […]
After treatment, ROs were washed in PBS (Gibco, 14190-144) and the auto-fluorescent background was measured by 3D-automated reporter quantification (3D-ARQ)[42], using a Tecan Spark Plate reader (SparkControl v2.3). The Z-position was determined manually by selecting the individual well and fluorescent intensity was measured using the optimized parameters below. […] After incubation, ROs were washed three times with PBS, and fluorescence intensity was measured by 3D-ARQ using the following parameters: Mode: Fluorescent top reading; Wavelength for PSVue-794: Excitation: Emission 730:820 nm, Excitation bandwidth: 10 nm, Emission bandwidth: 15 nm; Wavelength for Ethidium Homodimer: Excitation: Emission 530:630 nm, Excitation bandwidth: 5 nm, Emission bandwidth: 5 nm; Gain: 160, Manual; Number of flashes: 20; integration time: 40 µs; lag time 0 µs. […] Results were analysed after background subtraction; n = 19-24 ROs per condition. […]

Row | SMILES | OS length and ONL thickness vs vehicle-treated or untreated eyes [1] | Fluorescence intensity of Ethidium homodimer ([2]; CSE 500 µg/ml + peptide 1 nM) | Fluorescence intensity of Ethidium homodimer ([2]; CSE 500 µg/ml + peptide 20 nM)
1 | CC[C@H](C)[C@H](NC(=O)[C@H](CC(C)C)NC(=O)[C@H](CC(=O)O)NC(=O)[C@H](Cc1ccc(O)cc1)NC(=O)[C@H](Cc1ccc(O)cc1)NC(=O)[C@H](CC(C)C)NC(=O)[C@H](C)NC(=O)[C@H](CCCNC(=N)N)NC(=O)[C@H](C)NC(=O)[C@@H](NC(=O)[C@@H](NC(=O)[C@H](CO)NC(=O)[C@H](CCC(=O)O)NC(=O)[C@@H](NC(=O)[C@H](CCCNC(=N)N)NC(=O)[C@@H](N)CCC(N)=O)[C@@H](C)O)[C@@H](C)CC)[C@@H](C)CC)C(=O)N[C@@H](CO)C(=O)O [H105A] (H-QRTESIIARALYYDLIS-OH) | longer OS and thicker outer nuclear layer | 848.9 ± 51.0 RFU | 919.2 ± 46.0 RFU
2 | CC[C@H](C)[C@H](NC(=O)[C@H](CC(C)C)NC(=O)[C@H](CC(=O)O)NC(=O)[C@H](Cc1ccc(O)cc1)NC(=O)[C@H](Cc1ccc(O)cc1)NC(=O)[C@H](CC(C)C)NC(=O)[C@H](C)NC(=O)[C@H](CCCNC(=N)N)NC(=O)[C@H](Cc1c[nH]cn1)NC(=O)[C@@H](NC(=O)[C@@H](NC(=O)[C@H](CO)NC(=O)[C@H](CCC(=O)O)NC(=O)[C@@H](NC(=O)[C@H](C)NC(=O)[C@@H](N)CCC(N)=O)[C@@H](C)O)[C@@H](C)CC)[C@@H](C)CC)C(=O)N[C@@H](CO)C(=O)O [R99A] (H-QATESIIHRALYYDLIS-OH) | no effect |  | 1283.2 ± 67.6 RFU
